This note sets out measurements from patent publication US12600727B2, “Treatment of infections of toxoplasma gondii and closely related parasites” (WASHINGTON UNIVERSITY, priority 2018, dated 2026).

Holding throughout (format): cell-based
For assay [1], the system named is Toxoplasma gondii tachyzoites (ME49-FLUC, type 2). In words: T. gondii ME49-FLUC tachyzoite growth inhibition in HFF, luciferase assay. The conditions noted are these: T. gondii ME49-FLUC (type 2) tachyzoites in HFF. As to the method:
Toxoplasma gondii tachyzoites (ME49-FLUC, type 2) (27) were serially passaged in human foreskin fibroblasts (HFF) cultured in complete DMEM medium (DMEM supplemented with 10% fetal bovine serum (FBS), glutamine (10 mM) and gentamycin (10 μg/mL)). For each assay described, infected monolayers were scraped, needle passed (23 ga), and parasites were separated from host cell debris using a three (3) micron pore polycarbonate filter. HeLa cells were cultured in MEM media that contained 10% FBS, 4 mM L-glutamine and 10 mM HEPES solution. Cell culture and assays were conducted using a 37° C. incubator with 5% CO2. Cell cultures were negative for mycoplasma, as determined using the e-Myco plus kit (Intron Biotechnology).
White, clear bottom 96-well assay plates were set up as described above with the following modifications. Only the inner 60 wells were used for the assay in order to reduce variability that results from evaporation during incubation. Dilution of compound stock is as described above, with all wells containing a final concentration of 0.1% DMSO. DMSO (vehicle control) and pyrimethamine (2.5 μM, positive control) were included in the outside wells of all plates as controls. Liquid handling (serial dilutions, compound dilutions, cell feeding, plate-to-plate transfers, etc.) utilized a Dual Pod Biomek FX. Luciferase assays were performed using the integrated and automated platform (Beckman Coulter). The SAMI EX software was used to design and execute the screening assay and enabled efficient and uniform assay execution across all the assay plates.

The subject of assay [2] is Neospora caninum parasites (NC-1 strain). In words: N. caninum (NC-1, lac-Z) growth inhibition in HFF, β-Gal assay. The conditions noted are these: N. caninum NC-1 lac-Z, 72 h, 10-point dose response 5 μM-0.01 μM, average of three biological replicates, read-out: EC50. On the procedure: Neospora caninum parasites (NC-1 strain) expressing a lac-Z transgene (1) were serially passaged as tachyzoites in human foreskin fibroblasts cultured in DMEM supplemented with 10% fetal bovine serum (FBS), glutamine (10 mM) and gentamycin (10 μg/mL). Mature cultures were scraped, syringe passed using a 25 g needle to release parasites, filtered through a 3 micron polycarbonate filter to remove host cell debris and counted prior to each assay. All cultures were maintained in a 37° C. incubator with 5% CO2 and were verified mycoplasma free using the e-Myco plus Mycoplasma PCR detection kit (Boca Scientific).
Compounds were prepared as 10 mM stock in 100% DMSO. Pyrimethamine (positive control) and DMSO were included as controls in all plates and all replicates. The EC50 values were determined using a 10-point dose response curve using a 2-fold dilution series from 5.0 μM to 0.01 μM across the plate. Experiments were conducted in 96-well plates containing confluent HFF cells. Each assay plate was inoculated with 1×10^3 parasites (100 μL) containing 100 μL of 2× compound and incubated for 72 h prior to preparation for the j-Gal assay as described in Seeber, F. et al., Gene 169 (1996): 39-45, hereby incorporated by reference in its entirety and particularly in relation to the β-Gal assay protocol. Briefly, culture medium was replaced, wells rinsed with 200 μL of PBS followed by incubation with 50 μL of lysis buffer (100 mM HEPES, 1 mM MgSO4, 1% Triton X-100, 5 mM DTT) for 10 min at 50° C.
EC50 values determined from 10-point dose response curve (5 μM-0.01 μM) and presented as the average of three biological replicates. Linear regression and dose response inhibition (log ([compound]) vs normalized response-variable slope) were performed with Prism 8 for Mac (Graphpad Software, Inc.) and both the fits and data are shown in FIG. 1. Values represent the average of three biological replicates each with two internal replicates and are plotted as mean±S.E.M.

The test system of assay [3] is Toxoplasma gondii strains expressing FLUC. In words: microbe, parasite or virus in culture. On the procedure: The ability of bicyclic azetidines to inhibit different strains of T. gondii was tested using a series of firefly luciferase (FLUC)-tagged lines. […] A similar strategy was utilized to derive FLUC expressing lines from additional T. gondii strains MAS (type 4) and FOU (type 6).

Where two headings read alike, the source gives them in different places.

By EC50 is commonly meant the concentration giving half of the maximal effect. For `COc1ccc(NC(=O)N2CCCCN3[C@H](CN(C)C)[C@H](c4ccc(C#Cc5ccccc5)cc4)[C@@H]3C2)cc1` [Compound 15, (8R,9S,10S)-10-((dimethylamino)methyl)-N-(4-methoxyphenyl)-9-(4-(phenylethynyl)phenyl)-1,6-diazabicyclo[6.2.0]decane-6-carboxamide], the EC50 in assay [1] is 0.0226 µM; in assay [2], 0.25 µM; in assay [3] (genotype 4, read-out: Average EC50 ± S.D.), 0.0419 µM; in assay [3] (genotype 5, read-out: Average EC50 ± S.D.) it was 0.0269 µM; in assay [3] (genotype 6, read-out: Average EC50 ± S.D.) it was 0.0451 µM; in assay [3] (strain ME49, genotype 2, three or more independent titrations, read-out: Average EC50 ± S.D.), 0.0494 µM. For the same compound, in assay [3] (strain VAND, genotype 10, three or more independent titrations, read-out: Average EC50 ± S.D.), the EC50 stood at 0.0279 µM.
